Here are results for 30 compounds from US20240199623A1 (ILDONG PHARMACEUTICAL CO., LTD., priority 2020, published 2024).

Each structure is given as a SMILES string. Where only a bound is given, the exact number is not on record here.

The assay addresses human wild type-CFTR (Homo sapiens, UniProt P13569). Nature of the assay: Cell-based YFP assay. The conditions noted are these: CHO-K1 cells expressing human wild type-CFTR and YFP-H148Q/I152L; forskolin 20 μM = 100% activity; read-out: Cell-based YFP Assay (EC50) Concentration Range. Set-up: expressed in transfected cells; host or cells: CHO-K1 (Chinese hamster ovary). The procedure:
Forskolin (Tocris cat. #1099), Dimethyl sulfoxide (Sigma cat. #D4540), FLUO star Omega microplate reader (BMG Labtech, Ortenberg, Germany), MARS Data Analysis Software (BMG Labtech), GraphPad Prism 5 (GraphPad Software, Inc.) Chinese hamster ovary (CHO-K1) cells expressing human wild type-CFTR and halide sensor YFP-H148Q/I152L were constructed and grown in Dulbecco's modified Eagle's medium (DMEM) supplemented with 10% FBS, 2 mM glutamine, 100 units/ml penicillin and 100 μg/ml streptomycin. Chinese hamster ovary (CHO-K1) cells expressing human wild type-CFTR and halide sensor YFP-H148Q/I152L were seeded in 96-well microplate with 2×10^4 cells/well and incubated in 37° C., 48 hours. Then, each well was washed 3 times with PBS and 100 μL PBS was added in each well. […] YFP fluorescence signal affected by I^− ion influx through CFTR channel was measured in 37° C., FLUO star Omega microplate reader according to the following steps: • i) basal 2 seconds; • ii) 140 mM I^− solution 100 μL addition to each well; • iii) YFP fluorescence signal measurement start after 6 seconds; and • iv) following 14 seconds signal detection in every 0.4 seconds periods. […] Experiments were performed in triplicates and the data was averaged. EC50 values were calculated with MARS Data Analysis Software (BMG Labtech) and GraphPad Prism 5.

Sequence of human wild type-CFTR (P13569 whole entry): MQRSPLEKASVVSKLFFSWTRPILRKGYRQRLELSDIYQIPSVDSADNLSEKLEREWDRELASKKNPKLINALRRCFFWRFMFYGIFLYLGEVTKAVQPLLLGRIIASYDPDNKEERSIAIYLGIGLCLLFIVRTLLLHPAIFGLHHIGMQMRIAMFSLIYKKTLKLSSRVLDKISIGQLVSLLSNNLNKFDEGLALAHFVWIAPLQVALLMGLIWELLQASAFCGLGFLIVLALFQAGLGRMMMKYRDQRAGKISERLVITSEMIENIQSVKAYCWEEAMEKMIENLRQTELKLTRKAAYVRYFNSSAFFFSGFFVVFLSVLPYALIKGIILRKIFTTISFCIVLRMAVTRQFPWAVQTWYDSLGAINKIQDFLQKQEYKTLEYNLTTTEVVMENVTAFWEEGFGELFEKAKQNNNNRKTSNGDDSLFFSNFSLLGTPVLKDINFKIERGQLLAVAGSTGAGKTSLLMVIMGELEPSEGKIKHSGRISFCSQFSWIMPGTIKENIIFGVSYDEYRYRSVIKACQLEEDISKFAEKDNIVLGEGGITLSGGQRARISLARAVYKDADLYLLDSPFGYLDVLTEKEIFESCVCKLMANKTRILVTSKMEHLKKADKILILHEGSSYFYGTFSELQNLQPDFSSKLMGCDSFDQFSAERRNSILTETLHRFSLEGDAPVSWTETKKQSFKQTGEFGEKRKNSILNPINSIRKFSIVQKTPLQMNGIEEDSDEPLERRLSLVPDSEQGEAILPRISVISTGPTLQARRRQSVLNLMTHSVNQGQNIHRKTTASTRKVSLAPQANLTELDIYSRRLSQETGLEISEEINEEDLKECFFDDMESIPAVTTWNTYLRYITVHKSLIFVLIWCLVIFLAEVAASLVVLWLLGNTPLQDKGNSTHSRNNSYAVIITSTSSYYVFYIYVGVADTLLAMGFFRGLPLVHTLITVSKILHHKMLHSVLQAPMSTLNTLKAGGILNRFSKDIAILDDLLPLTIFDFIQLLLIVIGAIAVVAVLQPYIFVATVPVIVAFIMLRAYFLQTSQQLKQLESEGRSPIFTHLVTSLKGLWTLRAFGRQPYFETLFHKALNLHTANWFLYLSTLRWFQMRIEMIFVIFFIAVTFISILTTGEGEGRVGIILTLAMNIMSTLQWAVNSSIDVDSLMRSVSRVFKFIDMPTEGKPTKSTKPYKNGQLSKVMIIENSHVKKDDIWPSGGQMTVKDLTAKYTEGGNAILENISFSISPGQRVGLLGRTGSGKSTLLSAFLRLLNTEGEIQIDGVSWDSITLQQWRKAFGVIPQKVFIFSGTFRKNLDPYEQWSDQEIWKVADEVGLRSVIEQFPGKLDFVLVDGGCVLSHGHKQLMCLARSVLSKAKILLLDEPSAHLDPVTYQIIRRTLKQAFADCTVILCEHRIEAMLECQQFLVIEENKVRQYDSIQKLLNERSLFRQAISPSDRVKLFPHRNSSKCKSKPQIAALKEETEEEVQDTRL

As to `COc1ccc(-c2ccnc3cc(C(=O)NC4CCN(C(=O)COC(C)=O)CC4)nn23)cc1OC` [Compound 84, 2-(4-(7-(3,4-dimethoxyphenyl)pyrazolo[1,5-a]pyrimidine-2-carboxamido)piperidin-1-yl)-2-oxoethyl acetate], the EC50 was at least 2 µM.

In the case of `COc1ccc(-c2ccnc3cc(C(=O)Nc4ccc(C(=O)N[C@@H](CCSC)C(=O)O)cc4)nn23)cc1OC` [Compound 87, (4-(7-(3,4-dimethoxyphenyl)pyrazolo[1,5-a]pyrimidine-2-carboxamido)benzoyl)-L-methionine], the EC50 was at least 2 µM.

In the case of `COc1ccc(-c2ccnc3cc(C(=O)Nc4ccc(C(=O)N[C@@H](CC(=O)O)C(=O)O)cc4)nn23)cc1OC` [Compound 88, (4-(7-(3,4-dimethoxyphenyl)pyrazolo[1,5-a]pyrimidine-2-carboxamido)benzoyl)-L-aspartic acid], the EC50 is at least 2 µM.

Take `COc1ccc(-c2ccnc3cc(C(=O)Nc4ccc(C(=O)N[C@H](C)C(=O)O)cc4)nn23)cc1OC` [Compound 89, (4-(7-(3,4-dimethoxyphenyl)pyrazolo[1,5-a]pyrimidine-2-carboxamido)benzoyl)-D-alanine]: the EC50 is at least 2 µM.

Regarding `COc1ccc(-c2ccnc3cc(C(=O)N4CCN(C(=O)CO)CC4)nn23)cc1OC` [Compound 90, 1-(4-(7-(3,4-dimethoxyphenyl)pyrazolo[1,5-a]pyrimidine-2-carbonyl)piperazin-1-yl)-2-hydroxyethan-1-one], the EC50 was at least 2 µM.

`COc1ccc(-c2ccnc3cc(C(=O)NC4CCN(C(=O)CO)CC4)nn23)cc1OC` [Compound 91, 7-(3,4-dimethoxyphenyl)-N-(1-(2-hydroxyacetyl)piperidin-4-yl)pyrazolo[1,5-a]pyrimidine-2-carboxamide]: the EC50 is at least 2 µM.

For the compound `COC(=O)c1ccc(NC(=O)Nc2cc3nccc(-c4ccc(OC)c(OC)c4)n3n2)cc1` [Compound 93, methyl 4-(3-(7-(3,4-dimethoxyphenyl)pyrazolo[1,5-a]pyrimidin-2-yl)ureido)benzoate], the EC50 was 0.2 to 2 µM.

For the compound `COc1ccc(-c2ccnc3cc(C(=O)NCc4ccc(C(=O)O)cc4)nn23)cc1OC` [Compound 94, 4-((7-(3,4-dimethoxyphenyl)pyrazolo[1,5-a]pyrimidine-2-carboxamido)methyl) benzoic acid], the EC50 is at least 2 µM.

With `COc1ccc(-c2ccnc3cc(C(=O)NC45CC(C(N)=O)(C4)C5)nn23)cc1OC` [Compound 95, N-(3-carbamoylbicyclo [1.1.1]pentan-1-yl)-7-(3,4-dimethoxyphenyl) pyrazolo[1,5-a]pyrimidine-2-carboxamide], the EC50 was at least 2 µM.

As to `COc1ccc(-c2ccnc3cc(C(=O)NC45CC(C(=O)N6CCNCC6)(C4)C5)nn23)cc1OC` [Compound 98, 7-(3,4-dimethoxyphenyl)-N-(3-(piperazine-1-carbonyl)bicyclo [1.1.1]pentan-1-yl)pyrazolo[1,5-a] pyrimidine-2-carboxamide], the EC50 is at least 2 µM.

With `COc1ccc(-c2ccnc3cc(C(=O)NN4CCOCC4)nn23)cc1OC` [Compound 99, 7-(3,4-dimethoxyphenyl)-N-morpholinopyrazolo[1,5-a] pyrimidine-2-carboxamide], the EC50 was at least 2 µM.

In the case of `COc1ccc(-c2ccnc3cc(C(=O)N4CCN(C)CC4)nn23)cc1OC` [Compound 101, (7-(3,4-dimethoxyphenyl)pyrazolo[1,5-a]pyrimidin-2-yl)(4-methylpiperazin-1-yl)methanone], the EC50 was at least 2 µM.

Consider `COc1ccc(-c2ccnc3cc(C(=O)N[C@H]4CC[C@@H](O)CC4)nn23)cc1OC` [Compound 102, 7-(3,4-dimethoxyphenyl)-N-((1S,4S)-4-hydroxycyclohexyl) pyrazolo[1,5-a]pyrimidine-2-carboxamide], for which the EC50 is at least 2 µM.

Consider `COc1ccc(-c2ccnc3cc(C(=O)NC4CCN(C[C@@H](O)CO)CC4)nn23)cc1OC` [Compound 103, (R)-N-(1-(2,3-dihydroxypropyl)piperidin-4-yl)-7-(3,4-dimethoxyphenyl) pyrazolo[1,5-a]pyrimidine-2-carboxamide], for which the EC50 was at least 2 µM.

Regarding `COC(=O)c1ccc(NC(=O)c2cc3nccc(-c4ccc(OC)c(OC)c4)n3n2)c(Cl)c1` [Compound 104, methyl 3-chloro-4-(7-(3,4-dimethoxyphenyl)pyrazolo [1,5-a]pyrimidine-2-carboxamido)benzoate], the EC50 is at least 2 µM.

As for `COc1ccc(-c2ccnc3cc(NC(=O)Nc4ccc(C(=O)O)cc4)nn23)cc1OC` [Compound 107, 4-(3-(7-(3,4-dimethoxyphenyl)pyrazolo[1,5-a]pyrimidin-2-yl)ureido)benzoic acid], the EC50 was at least 2 µM.

As to `COc1ccc(-c2ccnc3cc(C(=O)NC(=Cc4ccccc4)C(=O)O)nn23)cc1OC` [Compound 108, 2-(7-(3,4-dimethoxyphenyl)pyrazolo[1,5-a]pyrimidine-2-carboxamido)-3-phenylacrylic acid], the EC50 was at least 2 µM.

Take `COc1ccc(-c2ccnc3cc(C(=O)N4CCN(C(=O)C5CC5)CC4)nn23)cc1OC` [Compound 110, (4-(cyclopropanecarbonyl)piperazin-1-yl)(7-(3,4-dimethoxyphenyl)pyrazolo[1,5-a]pyrimidin-2-yl)methanone]: the EC50 lay in the range of 0.2 to 2 µM.

Consider `COc1ccc(-c2ccnc3cc(C(=O)N4CCN(C(=O)OC(C)(C)C)[C@@H](C)C4)nn23)cc1OC` [Compound 112, tert-butyl (S)-4-(7-(3,4-dimethoxyphenyl)pyrazolo[1,5-a]pyrimidine-2-carbonyl)-2-methylpiperazine-1-carboxylate], for which the EC50 is under 0.2 µM.

As to `COc1ccc(-c2ccnc3cc(C(=O)N4CCN(C(=O)OC(C)(C)C)C(C)(C)C4)nn23)cc1OC` [Compound 113, tert-butyl 4-(7-(3,4-dimethoxyphenyl)pyrazolo [1,5-a]pyrimidine-2-carbonyl)-2,2-dimethylpiperazine-1-carboxylate], the EC50 was under 0.2 µM.

For `COc1ccc(-c2ccnc3cc(C(=O)N4CC[C@@H](NC(=O)OC(C)(C)C)C4)nn23)cc1OC` [Compound 115, tert-butyl (R)-(1-(7-(3,4-dimethoxyphenyl)pyrazolo [1,5-a]pyrimidine-2-carbonyl)pyrrolidin-3-yl)carbamate], the EC50 was in the range of 0.2 to 2 µM.

As to `COc1ccc(-c2ccnc3cc(C(=O)N4CC(NC(=O)OC(C)(C)C)C4)nn23)cc1OC` [Compound 116, tert-butyl (1-(7-(3,4-dimethoxyphenyl)pyrazolo [1,5-a]pyrimidine-2-carbonyl)azetidin-3-yl) carbamate], the EC50 is 0.2 to 2 µM.

As for `COc1ccc(-c2ccnc3cc(C(=O)N4CCC(=O)C4)nn23)cc1OC` [Compound 117, 1-(7-(3,4-dimethoxyphenyl)pyrazolo[1,5-a]pyrimidine-2-carbonyl) pyrrolidin-3-one], the EC50 was at least 2 µM.

For the compound `COc1ccc(-c2ccnc3cc(C(=O)Nc4ccc(C(=O)NCCN(C)C)cc4)nn23)cc1OC` [Compound 118, 7-(3,4-dimethoxyphenyl)-N-(4-((2-(dimethylamino)ethyl)carbamoyl)phenyl) pyrazolo[1,5-a]pyrimidine-2-carboxamide], the EC50 was at least 2 µM.

As to `COc1ccc(-c2ccnc3cc(C(=O)Nc4ccc(C(=O)NCCN5CCCCC5)cc4)nn23)cc1OC` [Compound 119, 7-(3,4-dimethoxyphenyl)-N-(4-((2-(piperidin-1-yl)ethyl)carbamoyl)phenyl) pyrazolo[1,5-a]pyrimidine-2-carboxamide], the EC50 was in the range of 0.2 to 2 µM.

For the compound `COc1ccc(-c2ccnc3cc(C(=O)Nc4ccc(C(=O)NCCN(C(C)C)C(C)C)cc4)nn23)cc1OC` [Compound 120, N-(4-((2-(diisopropylamino)ethyl)carbamoyl)phenyl)-7-(3,4-dimethoxyphenyl) pyrazolo[1,5-a]pyrimidine-2-carboxamide], the EC50 is under 0.2 µM.

For the compound `COc1ccc(-c2ccnc3cc(C(=O)Nc4ccc(C)cn4)nn23)cc1OC` [Compound 122, 7-(3,4-dimethoxyphenyl)-N-(5-methylpyridin-2-yl)pyrazolo[1,5-a] pyrimdine-2-carboxamide], the EC50 is under 0.2 µM.

For the compound `COc1ccc(-c2ccnc3cc(C(=O)NC45CC(C(=O)N6CCN(C)CC6)(C4)C5)nn23)cc1OC` [Compound 123, 7-(3,4-dimethoxyphenyl)-N-(3-(4-methylpiperazine-1-carbonyl)bicyclo[1.1.1]pentan-1-yl) pyrazolo[1,5-a]pyrimidine-2-carboxamide], the EC50 is at least 2 µM.

For the compound `COc1ccc(-c2ccnc3cc(C(=O)Nc4ccc(C(=O)N5CCN(C)CC5)cn4)nn23)cc1OC` [Compound 124, 7-(3,4-dimethoxyphenyl)-N-(5-(4-methylpiperazine-1-carbonyl)pyridin-2-yl)pyrazolo[1,5-a] pyrimidine-2-carboxamide], the EC50 is under 0.2 µM.

Regarding `COc1ccc(-c2ccnc3cc(C(=O)Nc4ccc(C(=O)N5CCN(C)CC5)cc4C)nn23)cc1OC` [Compound 128, 7-(3,4-dimethoxyphenyl)-N-(2-methyl-4-(4-methylpiperazine-1-carbonyl)phenyl)pyrazolo [1,5-a]pyrimidine-2-carboxamide], the EC50 is under 0.2 µM.
